Measured values taken from publication PMC11647683, “Structural Aspects of Mycobacterium tuberculosis DNA Gyrase Targeted by Novel Bacterial Topoisomerase Inhibitors” (ACS Medicinal Chemistry Letters, 2024).
Read-outs that look alike come from different tables or passages of the source.

Legend:
[1] = biological target: T1, M. tuberculosis DNA gyrase (Mycobacterium tuberculosis, UniProt P9WG47); experiment: biochemical; settings: M. tuberculosis DNA gyrase supercoiling, 100 nM compound
T1 construct: purchased Inspiralis (Norwich, UK)
T1 sequence (P9WG45 whole entry): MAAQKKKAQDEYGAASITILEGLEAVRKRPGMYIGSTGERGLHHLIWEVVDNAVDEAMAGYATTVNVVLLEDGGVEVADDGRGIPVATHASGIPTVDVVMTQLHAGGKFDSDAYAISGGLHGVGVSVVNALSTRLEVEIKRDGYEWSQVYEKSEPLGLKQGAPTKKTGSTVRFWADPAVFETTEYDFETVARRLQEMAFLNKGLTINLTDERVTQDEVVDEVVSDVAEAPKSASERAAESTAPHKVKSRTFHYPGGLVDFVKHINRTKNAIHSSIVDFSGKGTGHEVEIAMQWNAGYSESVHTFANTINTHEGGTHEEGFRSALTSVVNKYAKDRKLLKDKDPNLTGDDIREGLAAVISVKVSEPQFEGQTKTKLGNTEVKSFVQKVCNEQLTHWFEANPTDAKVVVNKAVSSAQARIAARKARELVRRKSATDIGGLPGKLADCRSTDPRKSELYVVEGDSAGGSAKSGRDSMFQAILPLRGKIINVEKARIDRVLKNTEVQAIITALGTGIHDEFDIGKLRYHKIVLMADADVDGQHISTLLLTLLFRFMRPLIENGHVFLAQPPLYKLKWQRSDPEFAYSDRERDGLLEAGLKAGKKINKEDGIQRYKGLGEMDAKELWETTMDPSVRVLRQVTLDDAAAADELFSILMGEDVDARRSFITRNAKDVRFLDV
T1 sequence (P9WG47 whole entry): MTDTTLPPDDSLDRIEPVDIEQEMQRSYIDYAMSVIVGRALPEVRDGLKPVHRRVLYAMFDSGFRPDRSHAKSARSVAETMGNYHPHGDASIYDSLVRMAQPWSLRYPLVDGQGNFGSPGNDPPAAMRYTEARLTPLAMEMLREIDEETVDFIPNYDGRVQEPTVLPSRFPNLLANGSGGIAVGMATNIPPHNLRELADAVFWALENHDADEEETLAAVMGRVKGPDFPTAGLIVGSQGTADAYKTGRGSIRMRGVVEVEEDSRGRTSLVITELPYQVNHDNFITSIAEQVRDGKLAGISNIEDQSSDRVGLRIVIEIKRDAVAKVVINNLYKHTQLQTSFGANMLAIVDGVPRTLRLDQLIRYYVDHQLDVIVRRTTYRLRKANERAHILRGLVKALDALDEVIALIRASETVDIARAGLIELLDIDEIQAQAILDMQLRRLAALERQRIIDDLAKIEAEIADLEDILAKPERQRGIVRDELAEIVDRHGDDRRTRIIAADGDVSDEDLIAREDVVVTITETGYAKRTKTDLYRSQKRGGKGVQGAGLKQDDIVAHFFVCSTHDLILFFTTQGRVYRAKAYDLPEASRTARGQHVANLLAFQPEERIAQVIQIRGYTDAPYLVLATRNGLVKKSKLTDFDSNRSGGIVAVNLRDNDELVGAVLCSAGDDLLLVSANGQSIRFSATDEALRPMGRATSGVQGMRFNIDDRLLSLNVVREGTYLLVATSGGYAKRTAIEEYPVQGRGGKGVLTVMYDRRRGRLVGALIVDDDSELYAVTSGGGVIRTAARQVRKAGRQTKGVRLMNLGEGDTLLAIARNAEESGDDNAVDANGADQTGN

hERG = hERG (Homo sapiens, UniProt Q12809)
hERG, sequence (Q12809 whole entry): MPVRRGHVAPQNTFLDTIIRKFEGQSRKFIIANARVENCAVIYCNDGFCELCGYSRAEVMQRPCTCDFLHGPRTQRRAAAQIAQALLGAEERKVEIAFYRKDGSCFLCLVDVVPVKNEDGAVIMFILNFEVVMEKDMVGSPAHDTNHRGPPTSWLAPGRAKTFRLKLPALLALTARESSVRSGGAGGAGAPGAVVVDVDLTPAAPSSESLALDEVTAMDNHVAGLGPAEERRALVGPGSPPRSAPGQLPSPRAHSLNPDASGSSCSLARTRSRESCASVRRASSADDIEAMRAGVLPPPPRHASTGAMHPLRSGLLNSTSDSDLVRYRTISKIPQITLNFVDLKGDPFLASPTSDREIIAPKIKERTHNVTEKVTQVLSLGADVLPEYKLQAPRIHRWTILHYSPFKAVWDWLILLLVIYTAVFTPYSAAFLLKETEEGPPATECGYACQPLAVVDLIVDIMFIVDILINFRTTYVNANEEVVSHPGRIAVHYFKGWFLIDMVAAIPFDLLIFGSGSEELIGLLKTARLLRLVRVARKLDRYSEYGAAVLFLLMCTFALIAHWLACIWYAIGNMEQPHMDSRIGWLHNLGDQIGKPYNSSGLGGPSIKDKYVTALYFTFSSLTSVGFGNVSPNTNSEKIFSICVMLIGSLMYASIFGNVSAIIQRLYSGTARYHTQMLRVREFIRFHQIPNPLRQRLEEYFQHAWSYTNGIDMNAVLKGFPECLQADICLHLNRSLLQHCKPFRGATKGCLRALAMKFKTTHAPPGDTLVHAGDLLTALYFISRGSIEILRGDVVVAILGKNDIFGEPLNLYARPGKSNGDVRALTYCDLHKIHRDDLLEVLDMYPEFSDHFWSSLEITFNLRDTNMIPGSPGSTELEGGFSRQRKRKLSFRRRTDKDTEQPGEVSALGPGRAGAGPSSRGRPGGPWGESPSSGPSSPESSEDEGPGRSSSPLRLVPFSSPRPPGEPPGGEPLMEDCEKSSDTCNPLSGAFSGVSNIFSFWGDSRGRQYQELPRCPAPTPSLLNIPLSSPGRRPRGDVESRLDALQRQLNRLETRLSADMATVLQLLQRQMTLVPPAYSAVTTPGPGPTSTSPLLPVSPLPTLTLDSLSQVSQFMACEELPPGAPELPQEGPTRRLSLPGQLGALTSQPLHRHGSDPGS

[2] = biological target: T1, M. tuberculosis DNA gyrase; experiment: biochemical; type: biochemical
M. tuberculosis H37Rv [3] = experiment: microbe, parasite or virus in culture; type: cell-based; settings: Mycobacterium tuberculosis; for IC50: read-out: Antituberculosis activity M. tuberculosis H37Rv IC50; for IC90: read-out: Antituberculosis activity M. tuberculosis H37Rv IC90
M. tuberculosis H37Rv [4] = settings: calculated from the published MIC value ref 26; cited from earlier work
[5] = M. tuberculosis gyrase supercoiling IC50, Assay 1, Assay 1 (single determination)
[6] = M. tuberculosis gyrase supercoiling IC50, Assay 2, Assay 2 (single determination)
[7] = supercoiling assay, mean of two independent measurements ± SD, read-out: Enzyme inhibition M. tuberculosis DNA gyrase IC50
[8] = reference wild-type strain, 90% inhibition of bacteria growth, mean of two independent measurements ± SD
[9] = Assay 1 (single determination), read-out: M. tuberculosis gyrase supercoiling IC50, Assay 1
[10] = Assay 2 (single determination), read-out: M. tuberculosis gyrase supercoiling IC50, Assay 2

## COc1ccc2nccc(CCN3CCC(NCc4ccc(Br)c(F)c4)CC3)c2n1 [Compound 1]
[1]
  inhibition at 0.1 µM: 84.1%
hERG
  IC50: 455 nM
[2]; [5]
  IC50: 397 nM
[2]; [6]
  IC50: 330 nM
[2]; [7]
  IC50: 363 ± 34 nM
M. tuberculosis H37Rv [3]
  IC50: 180 ± 45 nM
M. tuberculosis H37Rv [3]; [8]
  IC90: 200 ± 50 nM

## COc1ccc2nccc(CCN3CCC(NCc4ccc(I)c(F)c4)CC3)c2n1 [Compound 2]
[1]
  inhibition at 0.1 µM: 80.4%
hERG
  IC50: 243 nM
[2]; [5]
  IC50: 155 nM
[2]; [6]
  IC50: 56 nM
[2]; [7]
  IC50: 105 ± 50 nM
M. tuberculosis H37Rv [3]
  IC50: 200 ± 25 nM
M. tuberculosis H37Rv [3]; [8]
  IC90: 270 ± 45 nM

## COc1ccc2nccc(CCN3CCC(NCc4cc(F)c(Cl)c(F)c4)CC3)c2n1 [Compound 3]
[1]
  inhibition at 0.1 µM: 90.2%
hERG
  IC50: 436 nM
[2]; [9]
  IC50: 93 nM
[2]; [10]
  IC50: 91 nM
[2]; [7]
  IC50: 92 ± 1 nM
M. tuberculosis H37Rv [3]
  IC50: 71 ± 3 nM
M. tuberculosis H37Rv [3]; [8]
  IC90: 92 ± 8 nM

## COc1ccc2nccc(CCN3CCC(NCc4cc(F)c(Br)c(F)c4)CC3)c2n1 [Compound 4]
[1]
  inhibition at 0.1 µM: 99.8%
[2]; [9]
  IC50: 89 nM
[2]; [10]
  IC50: 69 nM
[2]; [7]
  IC50: 79 ± 10 nM
M. tuberculosis H37Rv [3]; [8]
  IC90: 62 ± 4 nM

## COc1ccc2nccc(C(O)CC3CCC(NCc4cc(F)c(Br)c(F)c4)CC3)c2n1 (stereo not shown) [Compound 5]
[1]
  inhibition at 0.1 µM: 95%
[2]; [9]
  IC50: 97 nM
[2]; [10]
  IC50: 96 nM
[2]; average of Assay 1 and Assay 2, read-out: M. tuberculosis gyrase supercoiling IC50, Average
  IC50: 96 nM
[2]; [7]
  IC50: 96 nM
M. tuberculosis H37Rv [3]; [8]
  IC90: 280 ± 65 nM

## COc1ccc2nccc(CCN3CCC(NCc4ccc(OC(F)F)c(OC)c4)CC3)c2n1 [Compound 6]
[1]
  inhibition at 0.1 µM: 0%

## COc1ccc2nccc(CCN3CCC(NCc4ccc(OC(F)F)c(O)c4)CC3)c2n1 [Compound 7]
[1]
  inhibition at 0.1 µM: 3.47%

## COc1ccc2nccc(CCN3CCC(NCc4ccc(C(F)(F)F)nc4)CC3)c2n1 [Compound 8]
[1]
  inhibition at 0.1 µM: 27.4%

## COc1ccc2nccc(CCN3CCC(NCc4cnn(C(C)C)c4)CC3)c2n1 [Compound 9]
[1]
  inhibition at 0.1 µM: 7.45%

## C=CCn1cc(CNC2CCN(CCc3ccnc4ccc(OC)nc34)CC2)cn1 [Compound 10]
[1]
  inhibition at 0.1 µM: 5.13%

## COc1ccc2nccc(CCN3CCC(NCc4ccc(N(C)C)cc4)CC3)c2n1 [Compound 11]
[1]
  inhibition at 0.1 µM: 0%

## COc1ccc(CNC2CCN(CCc3ccnc4ccc(OC)nc34)CC2)cn1 [Compound 12]
[1]
  inhibition at 0.1 µM: 0%

## COc1ccc2nccc(CCN3CCC(NCc4ccccc4)CC3)c2n1 [Compound 13]
[1]
  inhibition at 0.1 µM: 0%

## COc1ccc2nccc(CCN3CCC(NCc4ccc(F)cc4)CC3)c2n1 [Compound 14]
[1]
  inhibition at 0.1 µM: 0%

## COc1ccc2nccc(CCN3CCC(NCc4ccc(Cl)cc4)CC3)c2n1 [Compound 15]
[1]
  inhibition at 0.1 µM: 44.8%

## COc1ccc2nccc(CCN3CCC(NCc4ccc(Br)cc4)CC3)c2n1 [Compound 16]
[1]
  inhibition at 0.1 µM: 64.1%

## COc1ccc2nccc(CCN3CCC(NCc4ccc(I)cc4)CC3)c2n1 [Compound 17]
[1]
  inhibition at 0.1 µM: 63.7%

## COc1ccc2nccc(CCN3CCC(NCc4ccc(Cl)c(F)c4)CC3)c2n1 [Compound 18]
[1]
  inhibition at 0.1 µM: 52.2%

## COc1ccc2nccc(CCN3CCC(NCc4ccc(Br)c(F)c4F)CC3)c2n1 [Compound 19]
[1]
  inhibition at 0.1 µM: 29.9%

## COc1ccc2nccc(CCN3CCC(NCc4cc(F)c(Br)cc4F)CC3)c2n1 [Compound 20]
[1]
  inhibition at 0.1 µM: 43.1%

## COc1ccc2nccc(CCN3CCC(NCc4ccc(I)c(F)c4F)CC3)c2n1 [Compound 21]
[1]
  inhibition at 0.1 µM: 14.4%

## COc1ccc2nccc(CCN3CCC(NCc4ccc(Cl)nc4)CC3)c2n1 [Compound 22]
[1]
  inhibition at 0.1 µM: 27.3%

## COc1ccc2nccc(CCN3CCC(NCc4ccc(Cl)cn4)CC3)c2n1 [Compound 23]
[1]
  inhibition at 0.1 µM: 0%

## COc1ccc2nccc(OCC3CCC(NCc4ccc(Cl)cc4)CC3)c2n1 (stereo not shown) [Compound 24]
[1]
  inhibition at 0.1 µM: 4.7 ± 4.7%

## COc1ccc2nccc(OCC3CCC(NCc4ccc(Br)cc4)CC3)c2n1 (stereo not shown) [Compound 25]
[1]
  inhibition at 0.1 µM: 0%

## COc1ccc2nccc(OCC3CCC(NCc4ccc(I)cc4)CC3)c2n1 (stereo not shown) [Compound 26]
[1]
  inhibition at 0.1 µM: 9.68%

## COc1ccc2nccc(OCC3CCC(NCc4cc(F)c(Cl)c(F)c4)CC3)c2n1 (stereo not shown) [Compound 27]
[1]
  inhibition at 0.1 µM: 41.6%

## COc1ccc2nccc(OCC3CCC(NCc4cc(F)c(Br)c(F)c4)CC3)c2n1 (stereo not shown) [Compound 28]
[1]
  inhibition at 0.1 µM: 23.8%

## COc1ccc2nccc(OCC3CCC(NCc4ccc(I)c(F)c4)CC3)c2n1 (stereo not shown) [Compound 29]
[1]
  inhibition at 0.1 µM: 27.8%

## COc1ccc2nccc(OCC3CCC(NCc4ccc(Cl)cc4)CO3)c2n1 (stereo not shown) [Compound 30]
[1]
  inhibition at 0.1 µM: 0%

## COc1ccc2nccc(OCC3CCC(NCc4ccc(Br)cc4)CO3)c2n1 (stereo not shown) [Compound 31]
[1]
  inhibition at 0.1 µM: 0%

## COc1ccc2nccc(OCC3CCC(NCc4ccc(I)cc4)CO3)c2n1 (stereo not shown) [Compound 32]
[1]
  inhibition at 0.1 µM: 0.6%

## COc1ccc2nccc(OCC3CCC(NCc4cc(F)c(Br)c(F)c4)CO3)c2n1 (stereo not shown) [Compound 33]
[1]
  inhibition at 0.1 µM: 19.3%

## COc1ccc2nccc(OCC3CCC(NCc4cc(F)c(Cl)c(F)c4)CO3)c2n1 (stereo not shown) [Compound 34]
[1]
  inhibition at 0.1 µM: 4.3%

## COc1ccc2nccc(OCC3CCC(NCc4ccc(I)c(F)c4)CO3)c2n1 (stereo not shown) [Compound 35]
[1]
  inhibition at 0.1 µM: 20.3%

## COc1ccc2nccc(C(O)CC3CCC(NCc4ccc(Br)cc4)CC3)c2n1 (stereo not shown) [Compound 36]
[1]
  inhibition at 0.1 µM: 24.9%

## O=c1ccc2ncc(=O)n3c2n1C[C@H]3CN1CCC(NCc2cc3c(cn2)OCCC3)CC1 [Gepotidacin, reference compound]
M. tuberculosis H37Rv [4]
  MIC: g MIC = 0.86 μM value for Gepotidacin was calculated from the published MIC value.[26] “/” values were not found in the literature.
hERG
  IC50: > 30000 nM

## C[C@H]1COc2c(N3CCN(C)CC3)c(F)cc3c(=O)c(C(=O)O)cn1c23 [Levofloxacin, reference compound]
M. tuberculosis H37Rv [3]
  IC50: 590 nM
  IC90: 980 nM
